Experimental data published in patent EP0519877B1, “3-Acylamino-2-pyrrolidinones as enhancers of the processes of learning and memory and pharmaceutical compositions containing same” (Sigma-Tau Industrie Farmaceutiche Riunite S.p.A., priority 1991, dated 1992).

Test system: Male CD1 mice
Assay: Passive avoidance test following ECS-induced amnesia
Assay type: in vivo
Details: i.p., 30 minutes before training, retention assessed 24 hours later
Procedure: In order to assess the antiamnesic activity the passive avoidance test in mice was used.
Male CD1 mice (Charles River) weighting 25-26 g fed on a normal diet were used for the ECS-induced amnesia test.
The compounds were administered i.p.at doses equimolar to 9 and 0.9 mg/kg […]. The compounds were dissolved in saline.
The apparatus for passive avoidance conditioning was a black plastic chamber (42 x 42 cm, height 40 cm) provided with a floor constructed of metal rods that could be electrified. From the front wall extended a white runway, 30 cm long and 10 cm wide provided with side walls 12 cm high, which led into the box through a guillotine door.
30 minutes following treatment with the compounds, the animals were placed on the runway. After one minute of adaptation, the door was raised and the time employed by the animal to enter the darkened box with all four feet was recorded.
Upon entry, the guillotine door was lowered and three seconds thereafter the rods were electrified, 0.24 mA for 2 seconds.
The mouse was then removed from the chamber and immediately administered an electroshock delivered through spring clips attached to the ears (square wave, intensity 20 mA, amplitude 0.6 msec, duration 0.5 s, frequency 50 Hz).
Immediately thereafter the animal was placed in the housing cage. Retention was assessed 24 hours later by placing the animal on the runway and again evaluating the latency in entering the chamber, using an end-point of 300 seconds (Bammer, loc.cit.).
In each experiment, two groups of animals in addition to the treated ones were used, that were defined as follows: • (1) ceiling control animals (treated with placebo and not subjected to amnesia treatment) to ensure that these animals not treated with the amnesia agent remembered the task; • (2) base-line control animals (treated with placebo and subjected to amnesia treatment) to ensure that ECS produced amnesia in the animals not treated with the compounds of the present invention.
The sum ΣAij encompasses all the possible pairs obtained by combining each term Xi with each term Xj.

[1] = dose equimolar to 0.9 mg/kg PIRACETAM
[2] = dose equimolar to 9 mg/kg PIRACETAM

N[C@H]1CCNC1=O [ST 802, (S)-3-amino-2-pyrrolidinone, reference compound]
AR (percentage of amnesia reversal) [1]: 24%

O=C(N[C@H]1CCNC1=O)c1cccc(C(F)(F)F)c1 [ST 835, (S)-3-(3-trifluoromethylbenzoylamino)-2-pyrrolidinone]
AR (percentage of amnesia reversal) [1]: 51%
AR (percentage of amnesia reversal) [2]: 58%

O=CN[C@H]1CCNC1=O [ST 879, (S)-3-(formylamino)-2-pyrrolidinone]
AR (percentage of amnesia reversal) [1]: 53%
AR (percentage of amnesia reversal) [2]: 9%
